Data on 34 compounds can be found in patent publication US20240208965A1, “HETEROARYL ALKYLENE SUBSTITUTED 2-OXOQUINAZOLINE DERIVATIVES AS METHIONINE ADENOSYLTRANSFERASE 2A INHIBITORS” (IDEAYA BIOSCIENCES, INC., priority 2020, published 2024).

Each structure is given as a SMILES string.

T1 sequence (P31153 whole entry, the tested form may be a part): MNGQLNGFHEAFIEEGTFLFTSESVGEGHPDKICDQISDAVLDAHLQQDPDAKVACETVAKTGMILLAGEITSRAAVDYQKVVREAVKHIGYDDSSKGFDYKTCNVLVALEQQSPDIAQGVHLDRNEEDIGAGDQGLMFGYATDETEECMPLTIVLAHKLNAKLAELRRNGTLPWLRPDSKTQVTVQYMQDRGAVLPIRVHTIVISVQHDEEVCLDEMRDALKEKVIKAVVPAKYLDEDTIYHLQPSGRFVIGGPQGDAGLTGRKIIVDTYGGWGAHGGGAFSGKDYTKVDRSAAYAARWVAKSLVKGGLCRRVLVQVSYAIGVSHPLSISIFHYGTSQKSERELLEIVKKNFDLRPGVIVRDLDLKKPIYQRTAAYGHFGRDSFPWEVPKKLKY

This experiment addresses T1, Human MAT2A (Homo sapiens, UniProt P31153).
T1 construct: Human MAT2A: Cepter, amino acids 1-395 Clone ID 334, lot 00023-148; purchased Cepter clone ID 334, lot 00023-148
As to the kind of experiment: Phosphate Sensor Fluorescence Assay (Biologic Example B). Type of experiment: biochemical. To be noted: MAT2A inhibition, Biological Example B procedure (Compounds 1.029-1.070); 5.8 nM MAT2A, 500 uM L-methionine, 500 uM ATP. The method, then:
The ability of the compound of present disclosure to inhibit MAT2A enzyme was determined using a Phosphate Sensor Fluorescence Assay described below.
Biologic Example B. Phosphate Sensor Fluorescence Assay
MAT2A enzyme is incubated with a test compound in DMSO or DMSO and its substrates (L-methionine and ATP) in a microtiter plate. The enzymatic reaction is stopped by the addition of Working Phosphate Sensor Mixture. The plate is analyzed for fluorescence at 450 nm. The high control (DMSO with enzyme and its substrates) gives high fluorescence which represents no inhibition of enzymatic activity while the low control (DMSO with MAT2A substrates and no enzyme) gives low fluorescence which represents full inhibition of enzymatic activity.
• Human MAT2A: Cepter, amino acids 1-395 Clone ID 334, lot 00023-148 • Tris, pH 7.5: Invitrogen cat #15567-027 • KCl: Ambion cat #AM9640G • MgCl2: Ambion cat #AM9530G • Brij-35: Sigma cat B4184-10ML • DTT: Goldbio cat #DTT100 • BGG: Sigma cat #G5009-25G • PNP: Novus Biologicals cat #NBP1-50872 • 7-MEG: Cayman Chemical cat #15988 • L-Methionine: JTBaker P/N 2085-05 • ATP: Promega P/N V915B • Phosphate Sensor: Invitrogen cat #PV4407 • EDTA: Life Tech cat #15575-038 • Assay plate: 384-well black polypropylene plate: Corning P/N 3573
• Assay Buffer: 50 mM Tris, pH 7.5/50 mM KCl/10 mM MgCl2/0.01% Brij-35/1 mM DTT/0.01% BGG/40 nM PNP/6 uM 7-MEG • MAT2A: 5.8 nM MAT2A (1-395), Cepter, clone ID 334, lot 00023-148 before the addition of Working Phosphate Sensor Mixture • L-methionine: 500 uM before the addition of Working Phosphate Sensor Mixture • ATP: 500 uM before the addition of Working Phosphate Sensor Mixture
For the assay, a mixture of 1 mM L-methionine/1 mM ATP (2× final pre-stopped concentration) in assay buffer; MAT2A (2× final pre-stopped concentration) in Assay Buffer and Working Phosphate Sensor Mixture (1.5 uM Phosphate Sensor/30 mM EDTA in Assay Buffer, which is 3× final concentrations) were prepared. Test compounds or DMSO were added to the appropriate well using a Beckman Coulter Echo 550 acoustic liquid handler. 10 μL/well of Assay Buffer was added to the wells corresponding to the negative control and 10 μL/well of MAT2A was added to all the wells except for those corresponding to the negative control. After incubating the plate at room temperature for 15 minutes, 10 μL/well of the 1 mM L-methionine/1 mM ATP mixture was added to all wells. The plate was centrifuged at 1000 rpm for 1 minute and then incubated at room temperature for 1 hour. 10 μL of the Working Phosphate Sensor Mixture was added to all wells and the plate was centrifuged at 1000 rpm for 1 minute. The plate was read for fluorescence at 450 nm after exciting at 430 nm on a Tecan Spark microplate reader.
Percent inhibition was calculated in Chemical and Biological Information System (CBIS), (ChemInnovation Software Inc.). Curves were fitted by CBIS as % inhibition vs. log [compound concentration] using a 4-parameter inhibition model.
Fit=(A+((B−A)/(1+((C/x)^D))))
Compounds 1.001-1.028 were tested using the procedure described in Bioogical Example A, described above. Compounds 1.029-1.070 were tested using the procedure described in Biological Example B, described above.
By IC50 is commonly meant the point on the concentration scale where inhibition reaches its midpoint. In the case of `CNc1nc(=O)n(Cc2cocn2)c2cc(C(F)(F)F)ccc12` [1.066, 4-(Methylamino)-1-(oxazol-4-ylmethyl)-7-(trifluoromethyl)quinazolin-2(1H)-one], the IC50 was in the range of 10 to 200 nM.

As for `CC[C@@H](c1cnc[nH]1)n1c(=O)nc(N(C)C)c2ccc(C(F)(F)F)cc21` (single isomer, unassigned) [1.042], the IC50 fell in the range of 200 to 500 nM.

`C[C@@H](c1cnc[nH]1)n1c(=O)nc(N(C)C)c2ccc(Br)cc21` (single isomer, unassigned) [1.044] returned an IC50 below 10 nM.

On to `CN(C)c1nc(=O)n(Cc2ccncc2)c2nc(C(F)(F)F)ccc12` [1.054, 4-(Dimethylamino)-1-(pyridin-4-ylmethyl)-7-(trifluoromethyl)pyrido[2,3-d]pyrimidin-2(1H)one], for which the IC50 lay in the range of 1000 to 10000 nM.

The compound `CCN(C)c1nc(=O)n([C@@H](C)c2cnc[nH]2)c2cc(C(F)(F)F)ccc12` (single isomer, unassigned) [1.035] returned a half-maximal inhibitory concentration (IC50) of 10 to 200 nM.

In turn, `C[C@@H](c1cnc[nH]1)n1c(=O)nc(N(C)C)c2ccc(Cl)cc21` (single isomer, unassigned) [1.048] showed an IC50 of 10 to 200 nM.

`CNc1nc(=O)n(Cc2cscn2)c2cc(C(F)(F)F)ccc12` [1.067, 4-(Methylamino)-1-(thiazol-4-ylmethyl)-7-(trifluoromethyl)quinazolin-2(1H)-one]: the IC50 lay in the range of 1000 to 10000 nM.

On to `C[C@H](c1cnc[nH]1)n1c(=O)nc(N2CCC2)c2ccc(Br)cc21` (single isomer, unassigned) [1.039], for which the half-inhibitory concentration (IC50) is 200 to 500 nM.

The compound `C[C@H](c1cc[nH]n1)n1c(=O)nc(N(C)C)c2ccc(Cl)cc21` (single isomer, unassigned) [1.059] returned an IC50 below 10 nM.

Compound `CC(C)N(C)c1nc(=O)n([C@H](C)c2cnc[nH]2)c2cc(C(F)(F)F)ccc12` (single isomer, unassigned) [1.038] yielded an IC50 of 10 to 200 nM.

In turn, `CN(C)c1nc(=O)n(Cc2cccnc2)c2nc(C(F)(F)F)ccc12` [1.053, 4-(Dimethylamino)-1-(pyridin-3-ylmethyl)-7-(trifluoromethyl)pyrido[2,3-d]pyrimidin-2(1H)one] came in with a half-inhibitory concentration (IC50) of 1000 to 10000 nM.

`CC(c1c[nH]cn1)n1c(=O)nc(N2CCC2)c2ccc(Br)cc21` (stereo not shown) [1.032, 1-(1-(1H-imidazol-4-yl)ethyl)-4-(azetidin-1-yl)-7-bromoquinazolin-2(1H)-one] came in with an IC50 of 10 to 200 nM.

`CCN(C)c1nc(=O)n([C@H](C)c2cnc[nH]2)c2cc(C(F)(F)F)ccc12` (single isomer, unassigned) [1.036] returned an IC50 of 10 to 200 nM.

On to `CNc1nc(=O)n(Cc2cnsc2)c2cc(C(F)(F)F)ccc12` [1.029, 1-(Isothiazol-4-ylmethyl)-4-(methylamino)-7-(trifluoromethyl)quinazolin-2(1H)-one], for which the IC50 is 1000 to 10000 nM.

In turn, `CC(c1c[nH]cn1)n1c(=O)nc(N(C)C)c2ccc(Br)cc21` (stereo not shown) [1.031, 1-(1-(1H-imidazol-4-yl)ethyl)-7-bromo-4-(dimethylamino)quinazolin-2(1H)-one] came in with an IC50 of 10 to 200 nM.

With `CN(C)c1nc(=O)n(CC2CNC(=O)C2)c2cc(C(F)(F)F)ccc12` (stereo not shown) [1.057, 4-(Dimethylamino)-1-((5-oxopyrrolidin-3-yl)methyl)-7-(trifluoromethyl)quinazolin-2(1H)-one], the IC50 fell in the range of 500 to 1000 nM.

The compound `CN(C)c1nc(=O)n([C@@H](c2c[nH]cn2)C(F)F)c2nc(C(F)(F)F)ccc12` (single isomer, unassigned) [1.063] returned an IC50 of 1000 to 10000 nM.

Turning to `CNc1nc(=O)n(Cc2cnco2)c2cc(C(F)(F)F)ccc12` [1.065, 4-(Methylamino)-1-(oxazol-5-ylmethyl)-7-(trifluoromethyl)quinazolin-2(1H)-one], the IC50 was in the range of 500 to 1000 nM.

Turning to `CN(C)c1nc(=O)n(Cc2cn(C)cn2)c2cc(C(F)(F)F)ccc12` [1.058, 4-(Dimethylamino)-1-((1-methyl-1H-imidazol-4-yl)methyl)-7-(trifluoromethyl)quinazolin-2(1H)-one], the IC50 lay in the range of 1000 to 10000 nM.

For `CN(C)c1nc(=O)n(Cc2cnc[nH]2)c2cc(C(F)(F)F)ccc12` [1.030, 1-((1H-Imidazol-5-yl)methyl)-4-(dimethylamino)-7-(trifluoromethyl)quinazolin-2(1H)-one], the IC50 was in the range of 10 to 200 nM.

Compound `CN(C)c1nc(=O)n(Cc2ccn[nH]2)c2cc(Cl)ccc12` [1.056, 1-((1H-pyrazol-5-yl)methyl)-7-chloro-4-(dimethylamino)quinazolin-2(1H)-one] showed an IC50 of 10 to 200 nM.

In the case of `CC(C)N(C)c1nc(=O)n([C@@H](C)c2cnc[nH]2)c2cc(C(F)(F)F)ccc12` (single isomer, unassigned) [1.037], the IC50 lay within 10 to 200 nM.

For `C[C@H](c1cnc[nH]1)n1c(=O)nc(N(C)C)c2ccc(Cl)cc21` (single isomer, unassigned) [1.047], the half-inhibitory concentration (IC50) was below 10 nM.

`C[C@H](c1cc[nH]n1)n1c(=O)nc(N)c2ccc(Cl)cc21` (single isomer, unassigned) [1.069] showed an IC50 of 10 to 200 nM.

`CC[C@H](c1cnc[nH]1)n1c(=O)nc(N(C)C)c2ccc(C(F)(F)F)cc21` (single isomer, unassigned) [1.041]: the IC50 was 10 to 200 nM.

On to `CN(C)c1nc(=O)n([C@H](c2c[nH]cn2)C(F)F)c2nc(C(F)(F)F)ccc12` (single isomer, unassigned) [1.064], for which the IC50 lay within 200 to 500 nM.

Regarding `Cc1nc[nH]c1Cn1c(=O)nc(N(C)C)c2ccc(C(F)(F)F)cc21` [1.050, 4-(Dimethylamino)-1-((4-methyl-1H-imidazol-5-yl)methyl)-7-(trifluoromethyl)quinazolin-2(1H)-one], the IC50 lay within 1000 to 10000 nM.

Take `CN(C)c1nc(=O)n(Cc2nc[nH]n2)c2cc(C(F)(F)F)ccc12` [1.051, 1-((1H-1,2,4-Triazol-3-yl)methyl)-4-(dimethylamino)-7-(trifluoromethyl)quinazolin-2(1H)-one]: the half-maximal inhibitory concentration (IC50) was in the range of 10 to 200 nM.

For `CN(C)c1nc(=O)n(Cc2cnc[nH]2)c2cc(Cl)ccc12` [1.034, 1-((1H-imidazol-5-yl)methyl)-7-chloro-4-(dimethylamino)quinazolin-2(1H)-one], the half-inhibitory concentration (IC50) was 200 to 500 nM.

`CN(C)c1nc(=O)n(Cc2cncn2C)c2cc(C(F)(F)F)ccc12` [1.055, 4-(dimethylamino)-1-((1-methyl-1H-imidazol-5-yl)methyl)-7-(trifluoromethyl)quinazolin-2(1H)-one] came in with an IC50 of 200 to 500 nM.

`C[C@@H](c1cnc[nH]1)n1c(=O)nc(N2CCC2)c2ccc(Br)cc21` (single isomer, unassigned) [1.040] had an IC50 of 10 to 200 nM.

`CC(c1cnc[nH]1)n1c(=O)nc(N(C)C)c2ccc(C(F)(F)F)nc21` (stereo not shown) [1.046, 1-(1-(1H-Imidazol-5-yl)ethyl)-4-(dimethylamino)-7-(trifluoromethyl)pyrido[2,3-d]pyrimidin-2(1H)-one] returned an IC50 of 10 to 200 nM.

`CNc1nc(=O)n(Cc2cncs2)c2cc(C(F)(F)F)ccc12` [1.068, 4-(Methylamino)-1-(thiazol-5-ylmethyl)-7-(trifluoromethyl)quinazolin-2(1H)-one] registered an IC50 of 500 to 1000 nM.

`CC(c1cc[nH]n1)n1c(=O)nc(N(C)C)c2ccc(Cl)cc21` (racemic) [1.062, 1-(1-(1H-pyrazol-3-yl)ethyl)-7-chloro-4-(dimethylamino)quinazolin-2(1H)-one] displayed an IC50 below 10 nM.
